Test results from patent US20240382470A1, “Irak Inhibitor for Treating Cytokine Release-Related Conditions Associated With Infection by a Respiratory Virus” (Rigel Pharmaceuticals, Inc., priority 2021, published 2024).
Structures can show the parent of a compound that is named as a salt.

Assays:
[1] = target: human ACE2 (Homo sapiens, UniProt Q9BYF1); details: cited from earlier work
[2] = tested on: Shp1fl/fl RosaERT2-Cre/+ mouse model of lung inflammation; details: throughout the 21 days, control chow or Compound VII-49 chow
Method: ARDS-like disease model is produced by crossing Shp1^fl/fl to Shp1^fl/flRosa^ERT2-CRE/+ mice. Rosa^ERT2-CRE/+ is expressed under a Tamoxifen inducible promoter. When Tamoxifen is administered to Shp1^fl/flRosa^ERT2-CRE/+ mice CRE recombinase is activated resulting in deletion of Shp1 in hematopoietic cells.
Tamoxifen is administered at day 1 for a total of 4 days wherein Tamoxifen is administered twice a day at 200 mg/kg/bid (400 mg/kg/day). […] Mice were euthanized on day 21.
In an effort to generate an ARDS-like disease model, Shp1^fl/fl Rosa^ERT2-CRE/+ obtained from Jackson Laboratories were crossed to Shp1^fl/fl mice. Rosa^ERT2-CRE/+ is under the control of a Tamoxifen inducible promoter. Shp1^fl/fl Rosa^ERT2-CRE/+ mice were administered Tamoxifen to activate CRE recombinase resulting in deletion of Shp1 in all cells that normally express Shp1 (FIG. 1).
Mice were euthanized on day 21.

[3] = tested on: Dendritic cells + T cells + CD3/CD28 beads; assay: CRS assay, IL6 ELISA of supernatant; type: cell-based; details: Homo sapiens, read-out: Dendritic cells + T cells + CD3/CD28 beads IL6* ELISA EC50 (μM)
[4] = tested on: Dendritic cells + T cells + CD3/CD28 beads; assay: CRS assay, IL2 ELISA of supernatant; type: cell-based; details: Homo sapiens; 1 hour compound pre-incubation, overnight incubation; IL-2 only produced by activated T cells

Chain of human ACE2 (Q9BYF1 18-805): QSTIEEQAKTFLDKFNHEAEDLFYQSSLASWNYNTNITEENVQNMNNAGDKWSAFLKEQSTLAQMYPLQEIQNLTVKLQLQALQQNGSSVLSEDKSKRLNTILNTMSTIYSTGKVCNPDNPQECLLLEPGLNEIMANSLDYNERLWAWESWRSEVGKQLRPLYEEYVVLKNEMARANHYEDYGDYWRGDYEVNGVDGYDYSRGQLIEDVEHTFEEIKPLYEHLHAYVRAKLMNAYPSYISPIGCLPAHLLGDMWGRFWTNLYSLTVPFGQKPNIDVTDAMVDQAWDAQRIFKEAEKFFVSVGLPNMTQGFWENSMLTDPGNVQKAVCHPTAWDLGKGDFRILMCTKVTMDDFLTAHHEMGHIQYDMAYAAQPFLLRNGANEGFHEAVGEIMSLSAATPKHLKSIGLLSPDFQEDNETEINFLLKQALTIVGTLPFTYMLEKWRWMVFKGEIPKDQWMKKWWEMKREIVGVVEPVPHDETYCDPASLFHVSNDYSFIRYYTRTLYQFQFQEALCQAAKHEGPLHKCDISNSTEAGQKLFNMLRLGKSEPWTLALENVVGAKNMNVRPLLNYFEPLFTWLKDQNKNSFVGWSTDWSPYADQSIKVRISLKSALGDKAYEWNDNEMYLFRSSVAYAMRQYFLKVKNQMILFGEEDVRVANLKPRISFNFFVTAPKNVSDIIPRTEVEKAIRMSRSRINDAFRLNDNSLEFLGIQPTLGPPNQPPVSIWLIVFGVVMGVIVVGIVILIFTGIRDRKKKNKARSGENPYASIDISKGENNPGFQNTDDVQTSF

For `N[C@@H](CCN[C@@H](CCN1CC[C@H]1C(=O)O)C(=O)O)C(=O)O` [nicotianamine], the IC50 [1] is listed as 0.084 µM.

In the case of `CCO[C@H]1CC[C@H](n2cc(NC(=O)c3csc(-c4cnn(C(C)OP(=O)(O)O)c4)n3)c(-c3nc(F)ccc3F)n2)CC1` (stereo partly shown) [VII-49, 1-(4-(4-((3-(3,6-difluoropyridin-2-yl)-1-((1r,4r)-4-ethoxycyclohexyl)-1H-pyrazol-4-yl)carbamoyl)thiazol-2-yl)-1H-pyrazol-1-yl)ethyl dihydrogen phosphate tris salt], the mortality [2] is reported as “no mice died”.

`CCO[C@H]1CC[C@H](n2cc(NC(=O)c3csc(-c4cn[nH]c4)n3)c(-c3nc(F)ccc3F)n2)CC1` [VI-176, N-(3-(3,6-difluoropyridin-2-yl)-1-((1r,4r)-4-ethoxycyclohexyl)-1H-pyrazol-4-yl)-2-(1H-pyrazol-4-yl)thiazole-4-carboxamide] gave an EC50 [3] of 0.195 µM and an EC50 [4] of 6.9 µM.
